16 compounds from PubChem BioAssay (NCI) can be followed below.

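Briefly, cells in 96-well plates were exposed to five compound concentrations for 48 h, and endpoints were estimated by linear interpolation. TGI: total growth inhibition.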

Holding throughout (assay): inhibition of tumour cell growth, NCI panel, 48 h
In test [1] the test system is OVCAR-3 ovarian.
Test [2] has as its system U251 CNS.
Test [3] deals with 786-0 renal.
Test [4] deals with SF-539 CNS.
The test system of test [5] is COLO 205 colon.
Test [6] has as its system NCI-H226 lung.
The test system of test [7] is NCI-H23 lung.
Test [8] concerns K-562 leukemia.
The test system of test [9] is HL-60(TB) leukemia.
Test [10] relates to MCF7 breast.

`N#Cc1[nH]c(=O)n(-c2ccc([N+](=O)[O-])cc2)c1N`: the TGI in [1], in [2], in [3], in [4], in test [5] and in test [6] was greater than 10 µM throughout. The TGI in test [7], in test [8] and in [9] was greater than 10 µM each time.
Take `CC12CC3c4ccccc4CN1C3(c1ccccc1)OC2=O` (stereo not drawn): the TGI in test [2], in test [3], in test [4], in [5], in test [6] and in [7] was greater than 100 µM in each case. In [9], this compound came in with a TGI greater than 100 µM.
For the compound `c1cnc2c(c1)-n1cccc1C1(CCOCC1)NN2`, the TGI in test [1], in test [2], in test [3], in test [4], in [5] and in test [6] was greater than 100 µM in each case. Moreover, the TGI in [7], in [8] and in test [9] was greater than 100 µM throughout.
As for `CN1CC(c2ccccc2)=Cc2c1ccc(N)c2N=N`, the TGI in test [1], in [2], in test [3], in [10], in test [4] and in [6] was greater than 100 µM each time. Also, the TGI in test [7] and in test [8] was greater than 100 µM throughout.
In the case of `O=C(NCCNCCO)N/N=C/c1cccc([N+](=O)[O-])c1`, the TGI in test [1], in test [2], in test [3], in test [4], in test [5] and in test [6] was greater than 100 µM in each case. The TGI in test [7], in test [8] and in test [9] was greater than 100 µM each time.
For `COc1ccc(NC(=S)NN=C(C)c2cccc(C(C)=NNC(=S)Nc3ccc(OC)cc3)n2)cc1`, the TGI in [1], in [2], in [3], in test [4], in test [5] and in test [6] was greater than 100 µM throughout. Besides, the TGI in test [7], in test [8] and in test [9] was greater than 100 µM throughout.
As for `N=C(N)/N=C(/C=C/c1ccccc1)CC1OC(=O)c2ccccc21` (stereo not drawn), the TGI in test [2], in test [3], in test [4], in [5], in test [6] and in [8] was greater than 100 µM in each case. This compound registered a TGI in test [9] greater than 100 µM.
For the compound `C1=C2SSC3=CC=C(SSc4ccc(s4)SSC4=CC=C(SSC(=C1)S2)S4)S3`, the TGI in test [1], in test [2], in test [3], in test [10], in [5] and in [6] was greater than 100 µM throughout. Further, the TGI in test [7] and in test [8] was greater than 100 µM throughout.
Regarding `C/C(=N\Nc1nc2cc(C)ccc2s1)c1ccccn1`, the TGI in test [3] amounted to 9.59 µM; in [4], 41.2 µM; in test [6] it was 9.11 µM; in test [7], 11.8 µM; in test [9], 0.699 µM.
Take `Cc1ccc(-c2cc(-c3ccco3)nc(N)n2)o1`: the TGI in [1], in test [3], in test [4], in test [5], in test [6] and in test [7] was greater than 100 µM in each case. The TGI in test [8] and in test [9] was greater than 100 µM throughout.
Take `C=C(NC(=O)C(=C)NC(=O)c1csc(C2=NC3c4csc(n4)C4NC(=O)c5csc(n5)C(C(C)(O)C(C)O)NC(=O)C5CSC(=N5)/C(=C/C)NC(=O)C(C(C)O)NC(=O)c5csc(n5)C3(CC2)NC(=O)C(C)NC(=O)C(=C)NC(=O)C(=C)NC(=O)C(C(C)C)NC2C=Cc3c(C(C)O)cc(nc3C2O)C(=O)OC4C)n1)C(N)=O` (stereo not drawn): the TGI in test [1] was greater than 100 µM; in test [2], greater than 40.2 µM; in [3] it was 11.3 µM; in [10], greater than 26 µM; in test [5], greater than 100 µM; in [6] it was 7.24 µM. Also, the values for the TGI in test [7] and in [8] were greater than 62.6 µM and greater than 48.3 µM, respectively.
Consider `N/C(CC/C(N)=N\O)=N\O`, for which the TGI in test [1], in test [2], in [3], in [6], in test [7] and in [8] was greater than 100 µM each time.
For the compound `CCCCCCCCCCCCNC(=O)NCC(OCC)OCC`, the TGI in test [2], in test [3], in test [10], in test [4], in test [5] and in [6] was greater than 10 µM throughout. The TGI in test [7] and in test [8] was greater than 10 µM throughout.
As for `COc1cc2c(cc1O)[C@H](C)C(c1ccc(Cl)cc1)O2` (stereo partly drawn), the TGI in test [1] is greater than 100 µM; in test [2], 69 µM; in test [3] it was 32 µM; in test [4], greater than 100 µM; in [5] it was greater than 100 µM; in [6], 70 µM. Further, the TGI in test [7] worked out at 70.8 µM; in [8], 51.7 µM; in test [9] it was 35.6 µM.
As for `Cc1cc(-c2ccc(C(=O)C(Cl)(Cl)Cl)[nH]2)on1`, the TGI was 90.1 µM in [1]; 28.7 µM in [2]; greater than 100 µM in test [3]; 33 µM in test [4]; greater than 100 µM in [5]; 62.9 µM in test [6]. Also, the TGI in test [7] was 54.3 µM; in [8], greater than 100 µM; in test [9], 64.6 µM.
For the compound `O=c1[nH]cnc2c1nnn2CCCn1nnc2c(=O)[nH]cnc21`, the TGI in test [1], in [2], in test [3], in [4], in [5] and in test [6] was greater than 100 µM in each case. In addition, the TGI in test [7], in [8] and in test [9] was greater than 100 µM in each case.
